# Reference: the supplement of paper PMC10307832
# Experiments:
# Assay in all cases: relative viability (nuclei count vs DMSO), 5 days (fraction); higher = more cells survive
# [1] = compound: OCc1c[nH]c2ccccc12 [Indole-3-carbinol] + C[C@@H](Oc1cc(-c2cnn(C3CCNCC3)c2)cnc1N)c1c(Cl)ccc(F)c1Cl [Crizotinib] (partner 1 µM)
# Outline: (§1)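 Medians of duplicate plates are given as relative viability. That measure is the nuclei count in treated wells divided by the count in vehicle wells. Counts were taken on 4× images of lung cancer cell lines in 1536-well plates, 5 days after pin-tool dosing the day after seeding with one drug alone or a fixed anchor-drug dose plus five library-drug doses (not always all listed) in √10 steps.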
# [2] = compound: OCc1c[nH]c2ccccc12 [Indole-3-carbinol] + CC(C)C[C@H](NC(=O)[C@H](Cc1ccccc1)NC(=O)c1cnccn1)B(O)O [Bortezomib] (partner 0.002 µM)
# Outline: as §1
# [3] = compound: OCc1c[nH]c2ccccc12 [Indole-3-carbinol] + Nc1nc2[nH]cc(CCc3ccc(C(=O)N[C@@H](CCC(=O)O)C(=O)O)cc3)c2c(=O)[nH]1 [Pemetrexed] (partner 0.2 µM)
# Outline: as §1
# [4] = compound: OCc1c[nH]c2ccccc12 [Indole-3-carbinol] + Nc1ncn([C@H]2C[C@H](O)[C@@H](CO)O2)c(=O)n1 [Decitabine] (partner 2 µM)
# Outline: as §1
# [5] = compound: OCc1c[nH]c2ccccc12 [Indole-3-carbinol] + COc1cccc2cc(-c3nc([C@H]4CC[C@H](C(=O)O)CC4)n4ncnc(N)c34)[nH]c12 [OSI-027] (partner 0.5 µM)
# Outline: as §1
Cell Line,relative viability ([1]; first compound 0.253 µM),relative viability ([1]; first compound 0.8 µM),relative viability ([1]; first compound 2.53 µM),relative viability ([1]; first compound 8 µM),relative viability ([2]; first compound 0.253 µM),relative viability ([2]; first compound 0.8 µM),relative viability ([2]; first compound 2.53 µM),relative viability ([2]; first compound 8 µM),relative viability ([3]; first compound 0.253 µM),relative viability ([3]; first compound 0.8 µM),relative viability ([3]; first compound 2.53 µM),relative viability ([3]; first compound 8 µM),relative viability ([4]; first compound 0.253 µM),relative viability ([4]; first compound 0.8 µM),relative viability ([4]; first compound 2.53 µM),relative viability ([4]; first compound 8 µM),relative viability ([5]; first compound 0.253 µM),relative viability ([5]; first compound 0.8 µM),relative viability ([5]; first compound 2.53 µM),relative viability ([5]; first compound 8 µM)
201T,1.03,1.02,1.07,1.01,1.17,0.996,1.11,1.1,0.345,0.354,0.362,0.322,0.819,0.834,0.885,0.844,0.895,0.765,0.748,0.718
A-427,0.888,0.847,1.18,0.828,0.937,0.992,1.03,0.886,0.997,1.03,0.926,0.946,0.53,0.542,0.607,0.547,0.372,0.444,0.566,0.537
ABC-1,0.973,0.925,1.39,1.33,0.297,0.292,0.324,0.33,,,,,0.993,1.14,1.12,1.24,0.381,0.511,0.565,0.565
BEN,0.857,0.722,0.917,0.743,0.91,0.729,0.966,0.727,0.75,0.704,0.757,0.905,0.689,0.784,0.726,0.749,0.275,0.271,0.33,0.331
CAL-12T,0.657,0.866,0.718,0.639,0.983,1,0.842,0.819,1.28,1.44,1.12,1.24,,,,,0.709,0.775,0.62,0.623
COR-L23,0.751,0.724,0.748,0.485,0.926,1.14,0.899,0.883,0.193,0.202,0.198,0.209,0.428,0.465,0.414,0.385,0.66,0.718,0.854,0.628
COR-L 105,0.93,0.681,0.781,0.731,0.847,0.733,0.812,0.806,1.09,0.996,1.19,0.981,0.607,0.598,0.631,0.626,0.751,0.586,0.73,0.785
ChaGo-K-1,1.21,1.04,1.18,1.1,0.871,0.988,0.896,1.06,0.258,0.258,0.27,0.257,0.523,0.55,0.525,0.519,0.56,0.543,0.605,0.567
EKVX,1.09,1.24,0.648,0.864,1.24,1.1,1.12,1.04,0.4,0.46,0.413,0.452,0.326,0.353,0.326,0.381,0.719,0.74,0.731,0.633
EMC-BAC-2,0.72,0.785,0.794,0.666,0.994,1.01,1.08,1.02,0.393,0.441,0.439,0.448,0.953,0.96,0.957,0.889,0.32,0.356,0.386,0.359
EPLC-272H,0.997,1.14,0.947,1.01,1.27,0.925,0.985,0.837,0.34,0.349,0.36,0.349,0.364,0.359,0.388,0.356,0.252,0.299,0.333,0.218
H3255,0.865,0.817,0.968,0.759,0.899,0.852,0.748,0.732,0.547,0.54,0.637,0.625,0.658,0.561,0.517,0.68,0.518,0.625,0.543,0.545
HARA,1.11,1.23,1.06,0.987,1.2,1.06,1.11,1.06,0.267,0.239,0.243,0.242,0.566,0.549,0.637,0.47,0.572,0.436,0.597,0.556
HCC-15,0.79,0.879,0.852,0.763,1.08,1.08,1.1,1.06,0.214,0.226,0.205,0.235,0.66,0.682,0.64,0.664,0.681,0.79,0.676,0.701
HCC-44,0.891,0.946,0.913,0.782,0.911,1.03,0.888,0.869,0.679,0.659,0.694,0.541,0.983,0.986,0.971,0.91,0.488,0.412,0.484,0.525
HCC-78,0.307,0.328,0.369,0.342,0.416,0.51,0.403,0.554,0.89,0.947,0.929,0.891,0.681,0.715,0.676,0.741,0.363,0.359,0.39,0.346
